Data from patent US20190255091A1, “RNAi AGENTS FOR [sequence] B VIRUS INFECTION” (priority 2016, published 2019).

Experiments:
[1] = test system: Hepatitis B Virus (HBV); experiment: Serum HBsAg levels in pHBV model mice (ELISA); assay type: in vivo; set-up: key to Average HBsAg levels normalized to pre-treatment (day −1) and PBS control / Average HBsAg levels normalized to pre-treatment and PBS control: fraction of pre-treatment level, relative to PBS control mean; conditions: for Average HBsAg levels normalized to pre-treatment (day −1) and PBS control: single s.c. injection day 1, Example 7; for Average HBsAg normalized to pre-treatment and PBS control: single s.c. injection on day 1; for Average HBsAg levels normalized to pre-treatment and PBS control (Group A used as control): 3.0 mg/kg, s.c. injection on day 1 and day 22, Example 10
Description: (§1) Six to eight-week-old female NOD.CB17-Prkdscid/NcrCrl (NOD-SCID) mice were transiently transfected in vivo with MC-HBV1.3 by hydrodynamic tail vein injection (Yang P L et al. “Hydrodynamic injection of viral DNA: a mouse model of acute hepatitis B virus infection,” PNAS USA 2002 Vol. 99: p. 13825-13830), administered 30 to 45 days prior to administration of an HBV RNAi agent or control. MC-HBV1.3 is a plasmid-derived minicircle that contains the same terminally redundant human hepatitis B virus sequence HBV1.3 as in plasmid pHBV1.3 and in the HBV1.3.32 transgenic mice (GenBank accession #V01460) (Guidotti L G et al., “High-level hepatitis B virus replication in transgenic mice,” J Virol 1995 Vol. 69, p 6158-6169.). 5 or 10 μg MC-HBV1.3 in Ringer's Solution in a total volume of 10% of the animal's body weight was injected into mice via tail vein to create pHBV model of chronic HBV infection. The solution was injected through a 27-gauge needle in 5-7 seconds as previously described (Zhang G et al., “High levels of foreign gene expression in hepatocytes after tail vein injection of naked plasmid DNA.” Human Gene Therapy 1999 Vol. 10, p 1735-1737.). At pre-dose (either day 1 pre-dose, day −1, or day −2), Hepatitis B surface antigen (HBsAg) HBsAg expression levels in serum were measured by ELISA and the mice were grouped according to average HBsAg expression levels.
(§2) HBV expression levels were normalized to pre-administration expression levels and to control mice injected with phosphate buffered saline (“PBS”).
Mice were anesthetized with 2-3% isoflurane and blood samples were collected from the submandibular area into serum separation tubes (Sarstedt AG & Co., Nümbrecht, Germany). Blood was allowed to coagulate at ambient temperature for 20 min. The tubes were centrifuged at 8,000×g for 3 min to separate the serum and stored at 4° C.
Serum was collected and diluted 10 to 8000-fold in PBS containing 5% nonfat dry milk. […] HBsAg levels were determined with a GS HBsAg EIA 3.0 kit (Bio-Rad Laboratories, Inc., Redmond, Wash.) as described by the manufacturer. Recombinant HBsAg protein, ayw subtype, also diluted in nonfat milk in PBS, was used as a primary standard (Aldevron).
HBsAg expression for each animal was normalized to the control group of mice injected with PBS in order to account for the non-treatment related decline in expression of MC-HBV1.3. First, the HBsAg level for each animal at a time point was divided by the pre-treatment level of expression in that animal in order to determine the ratio of expression “normalized to pre-treatment”. Expression at a specific time point was then normalized to the control group by dividing the “normalized to pre-treatment” ratio for an individual animal by the average “normalized to pre-treatment” ratio of all mice in the normal PBS control group.

[2] = test system: Hepatitis B Virus (HBV); experiment: Serum HBeAg levels in pHBV model mice (ELISA); assay type: in vivo; conditions: single s.c. injection day 1, Example 7; for Average HBeAg levels normalized to pre-treatment and PBS control: pooled serum
Description: as §1, §2
HBeAg analysis was performed with the HBeAg enzyme linked immunosorbent assay (ELISA) as described by the manufacturer (DiaSorin) using serum diluted 4- to 20-fold in 5% nonfat dry milk. The amount of antigen was determined in the linear range of the assay and quantitated against HBeAg protein standards (Fitzgerald Industries International, catalog #30-AH18, Acton, Mass.).
HBeAg expression for each animal was normalized to the control group of mice injected with PBS in order to account for the non-treatment related decline in expression of MC-HBV1.3. For evaluation of HBeAg in serum, HBeAg is analyzed from pooled group or subgroup serum samples. First, the HBeAg level for each pooled group or subgroup was divided by the pre-treatment level of expression in the same group or subgroup in order to determine the ratio of expression “normalized to pre-treatment”. Expression at a specific time point was then normalized to the control group by dividing the “normalized to pre-treatment” ratio for a group or subgroup by the average “normalized to pre-treatment” ratio of all samples from the normal PBS control group.

With “AD04776: HBV RNAi agent duplex AM05850-AS/AM06150-SS (antisense UACCAAUUUAUGCCUACAGCC; sense GGCUGUAGGCAUAAAUUGGUA; chemistry not fully specified)” the “Average HBsAg levels normalized to pre-treatment (day −1) and PBS control” value ([1]; Day 8, 1.0 mg/kg) was 0.279 ± 0.057, the “Average HBsAg levels normalized to pre-treatment (day −1) and PBS control” value ([1]; Day 8, 2.0 mg/kg) was 0.224 ± 0.018 and the “Average HBsAg normalized to pre-treatment and PBS control” value (“Average HBsAg normalized” for short) ([1]; Day 8, 2.0 mg/kg, Example 15) was 0.339 ± 0.076. For the same substance, the “Average HBsAg levels normalized to pre-treatment and PBS control (Group A used as control)” value ([1]; Day 8) was 0.197 ± 0.081, the “Average HBsAg levels normalized to pre-treatment (day −1) and PBS control” value ([1]; Day 8, 4.0 mg/kg) was 0.117 ± 0.069 and the “Average HBsAg levels normalized to pre-treatment (day −1) and PBS control” value ([1]; Day 15, 1.0 mg/kg) was 0.245 ± 0.032. For the same substance, the “Average HBsAg levels normalized to pre-treatment (day −1) and PBS control” value ([1]; Day 15, 2.0 mg/kg) was 0.161 ± 0.009, the “Average HBsAg normalized” value ([1]; Day 15, 2.0 mg/kg, Example 15) was 0.414 ± 0.126 and the “Average HBsAg levels normalized to pre-treatment and PBS control (Group A used as control)” value ([1]; Day 15) was 0.308 ± 0.138. The “Average HBsAg levels normalized to pre-treatment (day −1) and PBS control” value ([1]; Day 15, 4.0 mg/kg) was 0.085 ± 0.039, the “Average HBsAg levels normalized to pre-treatment (day −1) and PBS control” value ([1]; Day 22, 1.0 mg/kg) was 0.374 ± 0.121 and the “Average HBsAg levels normalized to pre-treatment (day −1) and PBS control” value ([1]; Day 22, 2.0 mg/kg) was 0.310 ± 0.016. The “Average HBsAg normalized” value ([1]; Day 22, 2.0 mg/kg, Example 15) was 0.385 ± 0.067, the “Average HBsAg levels normalized to pre-treatment and PBS control (Group A used as control)” value ([1]; Day 22) was 0.476 ± 0.156 and the “Average HBsAg levels normalized to pre-treatment (day −1) and PBS control” value ([1]; Day 22, 4.0 mg/kg) was 0.148 ± 0.045. For the same substance, the “Average HBsAg levels normalized to pre-treatment (day −1) and PBS control” value ([1]; Day 29, 1.0 mg/kg) was 0.304, the “Average HBsAg levels normalized to pre-treatment (day −1) and PBS control” value ([1]; Day 29, 2.0 mg/kg) was 0.482 and the “Average HBsAg normalized” value ([1]; Day 29, 2.0 mg/kg, Example 15) was 0.450 ± 0.075. The “Average HBsAg levels normalized to pre-treatment and PBS control (Group A used as control)” value ([1]; Day 29) was 0.246 ± 0.081, the “Average HBsAg levels normalized to pre-treatment (day −1) and PBS control” value ([1]; Day 29, 4.0 mg/kg) was 0.198 and the “Average HBsAg normalized” value ([1]; Day 36, 2.0 mg/kg, Example 15) was 0.617 ± 0.116. The “Average HBsAg levels normalized to pre-treatment and PBS control (Group A used as control)” value ([1]; Day 36) was 0.244 ± 0.097, the “Average HBsAg normalized” value ([1]; Day 43, 2.0 mg/kg, Example 15) was 0.643 ± 0.154 and the “Average HBsAg levels normalized to pre-treatment and PBS control (Group A used as control)” value ([1]; Day 43) was 0.179 ± 0.061. For the same substance, the “Average HBsAg normalized” value ([1]; Day 50, 2.0 mg/kg, Example 15) was 0.665 ± 0.199, the “knockdown of HBsAg compared to PBS control” value ([1]; Example 15, administered alone or in combination with AD04872, across each of the time points measured) was “significant knockdown of HBsAg” and the “Average HBeAg fold knockdown normalized to pre-treatment and PBS control” value (shortened to “Average HBeAg fold knockdown normalized”) ([2]; Day 8, 1.0 mg/kg) was 2.6 Fold KD. For the same substance, the “Average HBeAg levels normalized to pre-treatment and PBS control” value (shortened to “Average HBeAg levels normalized”) ([2]; Day 8, 1.0 mg/kg) was 0.381, the “Average HBeAg fold knockdown normalized” value ([2]; Day 8, 2.0 mg/kg) was 3.6 Fold KD and the “Average HBeAg levels normalized” value ([2]; Day 8, 2.0 mg/kg) was 0.275. For the same substance, the “Average HBeAg fold knockdown normalized” value ([2]; Day 8, 4.0 mg/kg) was 5.2 Fold KD, the “Average HBeAg levels normalized” value ([2]; Day 8, 4.0 mg/kg) was 0.193 and the “Average HBeAg fold knockdown normalized” value ([2]; Day 15, 1.0 mg/kg) was 2.7 Fold KD. For the same substance, the “Average HBeAg levels normalized” value ([2]; Day 15, 1.0 mg/kg) was 0.368, the “Average HBeAg fold knockdown normalized” value ([2]; Day 15, 2.0 mg/kg) was 3.9 Fold KD and the “Average HBeAg levels normalized” value ([2]; Day 15, 2.0 mg/kg) was 0.255. The “Average HBeAg fold knockdown normalized” value ([2]; Day 15, 4.0 mg/kg) was 4.7 Fold KD, the “Average HBeAg levels normalized” value ([2]; Day 15, 4.0 mg/kg) was 0.213 and the “Average HBeAg fold knockdown normalized” value ([2]; Day 22, 1.0 mg/kg) was 2.8 Fold KD. The “Average HBeAg levels normalized” value ([2]; Day 22, 1.0 mg/kg) was 0.355, the “Average HBeAg fold knockdown normalized” value ([2]; Day 22, 2.0 mg/kg) was 2.7 Fold KD and the “Average HBeAg levels normalized” value ([2]; Day 22, 2.0 mg/kg) was 0.370. The “Average HBeAg fold knockdown normalized” value ([2]; Day 22, 4.0 mg/kg) was 3.8 Fold KD, the “Average HBeAg levels normalized” value ([2]; Day 22, 4.0 mg/kg) was 0.260 and the “Average HBeAg fold knockdown normalized” value ([2]; Day 29, 1.0 mg/kg) was 1.8 Fold KD. For the same substance, the “Average HBeAg levels normalized” value ([2]; Day 29, 1.0 mg/kg) was 0.564, the “Average HBeAg fold knockdown normalized” value ([2]; Day 29, 2.0 mg/kg) was 2.0 Fold KD and the “Average HBeAg levels normalized” value ([2]; Day 29, 2.0 mg/kg) was 0.495. The “Average HBeAg fold knockdown normalized” value ([2]; Day 29, 4.0 mg/kg) was 3.3 Fold KD, the “Average HBeAg levels normalized” value ([2]; Day 29, 4.0 mg/kg) was 0.307 and the “Average HBeAg fold knockdown normalized” value ([2]; Day 36, 1.0 mg/kg) was 2.1 Fold KD. For the same substance, the “Average HBeAg levels normalized” value ([2]; Day 36, 1.0 mg/kg) was 0.483, the “Average HBeAg fold knockdown normalized” value ([2]; Day 36, 2.0 mg/kg) was 2.2 Fold KD and the “Average HBeAg levels normalized” value ([2]; Day 36, 2.0 mg/kg) was 0.449. For the same substance, the “Average HBeAg fold knockdown normalized” value ([2]; Day 36, 4.0 mg/kg) was 2.2 Fold KD and the “Average HBeAg levels normalized” value ([2]; Day 36, 4.0 mg/kg) was 0.464.
